Data as given in patent US7148380B2, “Bio-energy muscle relaxants” (priority 2000, dated 2006).
Values joined by “and” are separate entries in the source; they are usually repeats but may differ in a detail not shown here. Equal entries are not always repeated. Where two headings read alike, the source gives them in different places.

Key:
[1] = system: hypertension induced by aramine; assay: Aramine-induced hypertension, preventive test; type: in vivo, SD rats
Experimental: (§1) Eighteen (18) SD rats (provided by the Center of Experimental Animals, First Military Medical University, Guang Zhou, China, Certificate No. 99A046) with body weight of 200–250 g were used for the study. The animal was anesthetized with urethane (1.4 g/kg, I.P.), then the main cervical artery was exposed and cannulated, blood pressure was monitored during the experiment. After a 30-minute stabilization period after the operation, normal blood pressure curves were recorded.

[2] = system: convulsion induced by strychnine; type: in vivo, NIH mice; details: for Convulsion / The latent period / Convulsion-Death time / Death: n=12; for The latent period / Convulsion-Death time: mean±SD; for Convulsion-Death time: P<0.01 vs control
Experimental: To investigate the effect, 36 mice (provided by the Center of Experimental Animals, Provincial Health Department, Guangdong, China, Certificate No. 99A030) were used for the study, the animals were grouped as placebo, preventing, and treatment groups. Muscle convulsion was induced with injection of strychnine (1.5 mg/kg I.P., injection product of 2 mg/ml, He Feng Pharmaceutical Co., Shanghai, China, Lot. No. 990701), the beginning and lasting time of the convulsion were recorded.
Half male and female healthy NIH mice with body weight of 20±2 g were selected for the study. The animals were randomly divided into three groups as protective, curative, and control (saline). […] In the control group, saline (20 ml/kg, I.P.) was administered 0.5 h before the strychnine. Immediately following the injection of strychnine, convulsion latent period and the time from beginning of convulsion to death of the animal were recorded. […] (see Table 7).

[3] = system: contraction of bronchial smooth muscle induced by histamine; assay: By-pass-airflow pressure, bronchial smooth muscle contraction induced by histamine; type: in vivo, guinea pig
Experimental: The animals were divided as saline, BDM, and aminophylline groups. Each animal was anesthetized with pentobarbital (30 mg/kg, I.P.), the trachea was intubated and connected to respirator. Tidal volume and frequency of the respirator were adjusted to 6˜10 ml and 60˜70 breath/min. respectively.
A small hole on chest wall of the animal was made, resulting in pneumothorax to inhibit spontaneous respiration of the animal. A modified device was used for measuring by-pass-airflow pressure of the airway, reflecting alteration in airway resistance, therefore evaluating status of bronchial smooth muscle contraction induced by histamine. The by-pass-airflow pressures were measured before and at 10, 20, 30, 40, 50, and 60 min after administration of histamine (5˜10 μg, I.P.) as control values. […] Changes in by-pass-airflow pressure caused by histamine before and after saline, BDM, or aminophylline were compared.
A percentage of changes in the airflow pressures before and after administration of the histamine at different time points, defined as the change rate, was calculated according to formula 1 below: Change rate (%)=(PA−PB)/PB×100% (1)
where PA is the airflow pressure after histamine, PB is the pressure before histamine. Values were expressed as mean±SD, paired or group “t” test was used upon the requirement for the statistical analysis. The results were considered significant when p<0.05.

[4] = system: hypertension induced by aramine; assay: Aramine-induced hypertension, curative test; type: in vivo, SD rats
Experimental: as §1

[5] = system: isolated colon tissues from guinea pigs; assay: Isolated colon smooth muscle contraction induced by BaCl2; set-up: species or system guinea pig
Description: To investigate this effect, 14 guinea pigs (provided by the Center of Experimental Animals, First Military Medical University, Guangzhou, China, certificate No. 99A047) with body weight of 240±20 g were used for the study. Following sacrifice of the animal by cervical dislocation, the colon was isolated within Botting solution, a segment of the colon in 2 cm length was taken to mount on the equipment—one end connected to a force transducer, the other end fixed at the bottom of the organ water-bath (DC-001 Organ Bath, made in Nanjin, China) containing oxygenated nutritious solution at 37° C.
Group “t” test was then made. Significance is considered to be established when P<0.05
The animals were divided as test group and control (placebo) group.
Where Fc is force of the smooth muscle contraction.
Paired group “t” test was made to compare contraction force after BDM and distilled water to determine whether there is a significant difference between the two groups.

[6] = curative: BDM immediately after strychnine
[7] = preventive: BDM 0.5 h prior to strychnine
[8] = after drug 10 ml/kg I.P., 10 min after histamine
[9] = after drug 10 ml/kg I.P., 20 min after histamine
[10] = after drug 10 ml/kg I.P., 30 min after histamine
[11] = after drug 10 ml/kg I.P., 40 min after histamine
[12] = after drug 10 ml/kg I.P., 50 min after histamine
[13] = after drug 10 ml/kg I.P., 60 min after histamine
[14] = before drug administration, 10 min after histamine
[15] = before drug administration, 20 min after histamine
[16] = before drug administration, 30 min after histamine
[17] = before drug administration, 40 min after histamine
[18] = before drug administration, 50 min after histamine
[19] = before drug administration, 60 min after histamine
[20] = BDM 0.2 M, 10 ml/kg, I.P. after aramine
[21] = control fluctuating within ±15 mmHg

Compound: CC(=O)C(C)=NO [BDM, 2,3-butanedione monoxime]
- Diastolic pressure 2 minutes after BDM administration ([1]; BDM 0.2 M, 10 ml/kg, I.P.): 39.7 ± 6.4^★★ mmHg
- Diastolic pressure 5 minutes after BDM administration ([1]; BDM 0.2 M, 10 ml/kg, I.P.): 39.0 ± 8.7^★★ mmHg
- Diastolic pressure 10 minutes after BDM administration ([1]; BDM 0.2 M, 10 ml/kg, I.P.): 43.0 ± 8.5^★★ mmHg
- Systolic pressure 2 minutes after BDM administration ([1]; BDM 0.2 M, 10 ml/kg, I.P.): 88.0 ± 5.2^★★ mmHg
- Systolic pressure 5 minutes after BDM administration ([1]; BDM 0.2 M, 10 ml/kg, I.P.): 84.0 ± 6.7^★★ mmHg
- Systolic pressure 10 minutes after BDM administration ([1]; BDM 0.2 M, 10 ml/kg, I.P.): 88.2 ± 7.7^★★ mmHg
- Diastolic pressure 2 minutes after aramine administration ([1]; BDM given before aramine): 76.2 ± 21.5^★★ mmHg
- Diastolic pressure 5 minutes after aramine administration ([1]; BDM given before aramine): 76.5 ± 11.9^★★ mmHg
- Diastolic pressure 10 minutes after aramine administration ([1]; BDM given before aramine): 77.0 ± 22.4^★★ mmHg
- Systolic pressure 5 minutes after aramine administration ([1]; BDM given before aramine): 127.5 ± 16.1^★★ mmHg
- Systolic pressure 10 minutes after aramine administration ([1]; BDM given before aramine): 127.7 ± 17.3^★★ mmHg
- Systolic pressure 2 minutes after aramine administration ([1]; BDM given before aramine 30 μg/ml, 0.4 ml/min I.V.): 126.3 ± 16.1^★★ mmHg
- Diastolic pressure, Blood Pressure before ([1]; baseline, mean±SD, n=6–7): 68.7 ± 8.8 mmHg
- Systolic pressure, Blood Pressure before ([1]; baseline, mean±SD, n=6–7): 117.3 ± 3.2 mmHg
- Diastolic blood pressure following aramine administration in BDM group ([1]; control about 120): ~75 mmHg
- Systolic blood pressure following aramine administration in BDM group ([1]; control about 185): about 125 mmHg
- Diastolic blood pressure after administration of BDM ([1]; down from 68, approximately): ~40 mmHg
- Systolic blood pressure after administration of BDM ([1]; down from 117, approximately): ~84 mmHg
- Convulsion ([2]; curative: BDM 0.2M, 20 ml/kg I.P. immediately after strychnine 1.5 mg/kg I.P.): 100%
- The latent period [2, 6]: 134.2 ± 31.5 s
- Convulsion-Death time [2, 6]: 538.3±169.3 s and 538.3 ± 169.3^★★ s
- Death [2, 6]: 100%
- Behaviour of the animals after administration of BDM ([2]; mice, BDM 0.2M, 20 ml/kg, I.P.): reducing activities, difficulties in action and toddling
- Convulsion ([2]; preventive: BDM 0.2M, 20 ml/kg I.P. 0.5 h prior to strychnine 1.5 mg/kg I.P.): 100%
- The latent period [2, 7]: 183.8 ± 32.6 s
- Convulsion-Death time [2, 7]: 496.3±285.3 s and 496.3 ± 285.3^★★ s
- Death [2, 7]: 100%
- by-pass-airflow pressure, A, B. Hist ([3]; after drug 10 ml/kg I.P. (BDM 0.2M, aminophylline 1.25%), before histamine): 3.86 ± 0.23 Kpa
- by-pass-airflow pressure, A, Hist 10 min. [3, 8]: 3.42 ± 0.21 Kpa
- changing rate of by-pass-airflow pressure, A, Hist 10 min. [3, 8]: −11.37%
- by-pass-airflow pressure, A, Hist 20 min. [3, 9]: 3.54 ± 0.21 Kpa
- changing rate of by-pass-airflow pressure, A, Hist 20 min. [3, 9]: −8.22%
- by-pass-airflow pressure, A, Hist 30 min. [3, 10]: 3.56 ± 0.27 Kpa
- changing rate of by-pass-airflow pressure, A, Hist 30 min. [3, 10]: −7.80%
- by-pass-airflow pressure, A, Hist 40 min. [3, 11]: 3.60 ± 0.28 Kpa
- changing rate of by-pass-airflow pressure, A, Hist 40 min. [3, 11]: −6.77%
- by-pass-airflow pressure, A, Hist 50 min. [3, 12]: 3.62 ± 0.29 Kpa
- changing rate of by-pass-airflow pressure, A, Hist 50 min. [3, 12]: −6.25%
- by-pass-airflow pressure, A, Hist 60 min. [3, 13]: 3.66 ± 0.26 Kpa
- changing rate of by-pass-airflow pressure, A, Hist 60 min. [3, 13]: −5.11%
- histamine-induced increase in the airflow pressure ([3]; at 10, 20, 30, 40, and 50 min after administration, p<0.01 or p<0.05): significantly reduce
- by-pass-airflow pressure, B, Hist 10 min. [3, 14]: 3.67 ± 0.16 Kpa
- changing rate of by-pass-airflow pressure, B, Hist 10 min. [3, 14]: 2.13%
- by-pass-airflow pressure, B, Hist 20 min. [3, 15]: 3.76 ± 0.32 Kpa
- changing rate of by-pass-airflow pressure, B, Hist 20 min. [3, 15]: 4.49%
- by-pass-airflow pressure, B, Hist 30 min. [3, 16]: 3.72 ± 0.21 Kpa
- changing rate of by-pass-airflow pressure, B, Hist 30 min. [3, 16]: 3.52%
- by-pass-airflow pressure, B, Hist 40 min. [3, 17]: 3.72 ± 0.18 Kpa
- changing rate of by-pass-airflow pressure, B, Hist 40 min. [3, 17]: 3.56%
- by-pass-airflow pressure, B, Hist 50 min. [3, 18]: 3.67 ± 0.23 Kpa
- changing rate of by-pass-airflow pressure, B, Hist 50 min. [3, 18]: 2.06%
- by-pass-airflow pressure, B, Hist 60 min. [3, 19]: 3.68 ± 0.11 Kpa
- changing rate of by-pass-airflow pressure, B, Hist 60 min. [3, 19]: 2.54%
- by-pass-airflow pressure, B, B. Hist ([3]; before drug administration, before histamine): 3.60 ± 0.26 Kpa
- changing rate of by-pass-airflow pressure, D, Hist 10 min. ([3]; difference A minus B, 10 min after histamine): −13.50%
- changing rate of by-pass-airflow pressure, D, Hist 20 min. ([3]; difference A minus B, 20 min after histamine): −12.72%
- changing rate of by-pass-airflow pressure, D, Hist 30 min. ([3]; difference A minus B, 30 min after histamine): −11.33%
- changing rate of by-pass-airflow pressure, D, Hist 40 min. ([3]; difference A minus B, 40 min after histamine): −10.34%
- changing rate of by-pass-airflow pressure, D, Hist 50 min. ([3]; difference A minus B, 50 min after histamine): −8.31%
- changing rate of by-pass-airflow pressure, D, Hist 60 min. ([3]; difference A minus B, 60 min after histamine): −7.65%
- Diastolic pressure 2 min. after BDM administration [4, 20]: 73.8 ± 4.9^★★ mmHg
- Diastolic pressure 5 min. after BDM administration [4, 20]: 77.0 ± 9.1^★★ mmHg
- Diastolic pressure 10 min. after BDM administration [4, 20]: 76.3 ± 5.2^★★ mmHg
- Systolic pressure 2 min. after BDM administration [4, 20]: 123.7 ± 6.0^★★ mmHg
- Systolic pressure 5 min. after BDM administration [4, 20]: 128.3 ± 5.2^★★ mmHg
- Systolic pressure 10 min. after BDM administration [4, 20]: 130.5 ± 4.2^★★ mmHg
- Diastolic pressure, Blood Pressure before ([4]; baseline, mean±SD, n=6–7): 74.0 ± 15.4 mmHg
- Systolic pressure, Blood Pressure before ([4]; baseline, mean±SD, n=6–7): 123.3 ± 10.1 mmHg
- Diastolic pressure 2 min. after aramin administration ([4]; before BDM): 121.5 ± 5.5 mmHg
- Diastolic pressure 5 min. after aramin administration ([4]; before BDM): 122.2 ± 5.1 mmHg
- Diastolic pressure 10 min. after aramin administration ([4]; before BDM): 117.7 ± 9.5 mmHg
- Systolic pressure 2 min. after aramin administration ([4]; before BDM): 182.7 ± 6.0 mmHg
- Systolic pressure 5 min. after aramin administration ([4]; before BDM): 183.5 ± 5.5 mmHg
- Systolic pressure 10 min. after aramin administration ([4]; before BDM): 181.8 ± 6.4 mmHg
- Average decrease of diastolic blood pressure after BDM administration [4, 21]: 42 mmHg
- Average decrease of systolic blood pressure after BDM administration [4, 21]: 54 mmHg
- Contraction force, After ([5]; BaCl2 0.67 g/L, 10 min after BDM 0.2M, 20 ml/L nutritious sol., single preparations): 1.70 g and 1.35 g and 1.45 g and 1.75 g and 2.20 g
- Contraction force, Before ([5]; BaCl2 0.67 g/L, before BDM, single colon preparations of the test group): 2.35 g and 2.30 g and 2.45 g and 2.70 g and 2.90 g
- Contraction Rate ([5]; force after / before BDM 0.2M, 20 ml/L, single preparations): 72.3% and 58.7% and 61.7% and 76.1% and 69.4% and 64.8% and 75.9%
